Assay results: paper PMC9851200, “Multiparameter phenotypic screening for endogenous TFEB and TFE3 translocation identifies novel chemical series modulating lysosome function” (Autophagy, 2022)

Legend:
Assay type in all cases: binding
[1] = molecular target: kinases (KINOMEscan panel) (Homo sapiens, UniProt P10721, V559D/V654A); conditions: kinase KIT(V559D,V654A); NEW KINOMEscan
[2] = molecular target: kinases (KINOMEscan panel) (Homo sapiens, UniProt P42336, E545A); conditions: NEW KINOMEscan
Chain of kinases (KINOMEscan panel) (Homo sapiens, UniProt P42336, E545A) (P42336 whole entry E545A): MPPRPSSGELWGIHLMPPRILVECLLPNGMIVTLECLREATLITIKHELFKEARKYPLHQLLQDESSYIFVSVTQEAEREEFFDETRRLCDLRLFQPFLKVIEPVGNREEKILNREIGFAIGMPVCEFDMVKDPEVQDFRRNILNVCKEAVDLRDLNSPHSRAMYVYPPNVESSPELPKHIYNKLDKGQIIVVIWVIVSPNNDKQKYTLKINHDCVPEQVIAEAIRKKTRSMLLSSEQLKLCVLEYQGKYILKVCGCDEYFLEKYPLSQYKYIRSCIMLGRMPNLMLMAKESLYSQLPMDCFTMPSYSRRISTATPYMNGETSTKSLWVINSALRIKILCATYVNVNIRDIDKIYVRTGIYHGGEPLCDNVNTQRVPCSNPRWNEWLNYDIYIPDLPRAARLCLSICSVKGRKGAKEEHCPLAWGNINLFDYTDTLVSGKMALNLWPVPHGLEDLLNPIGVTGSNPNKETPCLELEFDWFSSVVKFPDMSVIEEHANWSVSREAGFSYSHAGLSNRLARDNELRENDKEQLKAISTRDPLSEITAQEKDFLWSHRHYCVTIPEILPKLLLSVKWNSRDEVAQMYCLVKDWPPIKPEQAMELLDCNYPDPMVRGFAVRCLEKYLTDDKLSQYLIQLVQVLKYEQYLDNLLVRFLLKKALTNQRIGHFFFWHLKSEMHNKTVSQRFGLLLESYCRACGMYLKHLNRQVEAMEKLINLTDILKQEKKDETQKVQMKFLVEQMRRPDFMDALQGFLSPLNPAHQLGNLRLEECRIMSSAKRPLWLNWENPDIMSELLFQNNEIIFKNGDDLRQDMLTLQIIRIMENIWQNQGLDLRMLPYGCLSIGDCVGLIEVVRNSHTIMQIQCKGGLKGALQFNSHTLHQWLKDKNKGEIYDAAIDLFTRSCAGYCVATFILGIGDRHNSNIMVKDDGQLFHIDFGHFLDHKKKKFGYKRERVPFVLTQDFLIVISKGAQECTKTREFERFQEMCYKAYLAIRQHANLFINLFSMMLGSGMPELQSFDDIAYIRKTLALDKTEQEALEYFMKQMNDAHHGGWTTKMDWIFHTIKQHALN

[3] = molecular target: T1, kinases (KINOMEscan panel) (Homo sapiens, UniProt P43403); conditions: NEW KINOMEscan
T1 sequence (P43403 1-619): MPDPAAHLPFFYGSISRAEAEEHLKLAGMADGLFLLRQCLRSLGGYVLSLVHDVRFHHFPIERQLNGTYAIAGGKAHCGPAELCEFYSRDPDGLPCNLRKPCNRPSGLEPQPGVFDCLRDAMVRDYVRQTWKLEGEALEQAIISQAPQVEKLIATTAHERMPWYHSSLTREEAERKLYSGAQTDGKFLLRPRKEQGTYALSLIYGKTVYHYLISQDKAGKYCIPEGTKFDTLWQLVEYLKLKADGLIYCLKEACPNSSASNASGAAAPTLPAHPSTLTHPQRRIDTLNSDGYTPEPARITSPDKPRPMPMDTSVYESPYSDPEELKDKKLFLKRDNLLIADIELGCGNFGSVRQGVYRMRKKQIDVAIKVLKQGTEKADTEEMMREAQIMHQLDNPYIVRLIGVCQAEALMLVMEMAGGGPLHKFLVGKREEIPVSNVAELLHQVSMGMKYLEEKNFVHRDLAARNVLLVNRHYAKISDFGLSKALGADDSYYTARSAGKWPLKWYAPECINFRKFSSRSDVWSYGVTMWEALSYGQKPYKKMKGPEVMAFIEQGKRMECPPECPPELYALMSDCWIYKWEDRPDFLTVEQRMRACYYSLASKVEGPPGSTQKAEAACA

[4] = molecular target: kinases (KINOMEscan panel) (Homo sapiens, UniProt P80192); conditions: NEW KINOMEscan
Chain of kinases (KINOMEscan panel) (Homo sapiens, UniProt P80192) (P80192 whole entry): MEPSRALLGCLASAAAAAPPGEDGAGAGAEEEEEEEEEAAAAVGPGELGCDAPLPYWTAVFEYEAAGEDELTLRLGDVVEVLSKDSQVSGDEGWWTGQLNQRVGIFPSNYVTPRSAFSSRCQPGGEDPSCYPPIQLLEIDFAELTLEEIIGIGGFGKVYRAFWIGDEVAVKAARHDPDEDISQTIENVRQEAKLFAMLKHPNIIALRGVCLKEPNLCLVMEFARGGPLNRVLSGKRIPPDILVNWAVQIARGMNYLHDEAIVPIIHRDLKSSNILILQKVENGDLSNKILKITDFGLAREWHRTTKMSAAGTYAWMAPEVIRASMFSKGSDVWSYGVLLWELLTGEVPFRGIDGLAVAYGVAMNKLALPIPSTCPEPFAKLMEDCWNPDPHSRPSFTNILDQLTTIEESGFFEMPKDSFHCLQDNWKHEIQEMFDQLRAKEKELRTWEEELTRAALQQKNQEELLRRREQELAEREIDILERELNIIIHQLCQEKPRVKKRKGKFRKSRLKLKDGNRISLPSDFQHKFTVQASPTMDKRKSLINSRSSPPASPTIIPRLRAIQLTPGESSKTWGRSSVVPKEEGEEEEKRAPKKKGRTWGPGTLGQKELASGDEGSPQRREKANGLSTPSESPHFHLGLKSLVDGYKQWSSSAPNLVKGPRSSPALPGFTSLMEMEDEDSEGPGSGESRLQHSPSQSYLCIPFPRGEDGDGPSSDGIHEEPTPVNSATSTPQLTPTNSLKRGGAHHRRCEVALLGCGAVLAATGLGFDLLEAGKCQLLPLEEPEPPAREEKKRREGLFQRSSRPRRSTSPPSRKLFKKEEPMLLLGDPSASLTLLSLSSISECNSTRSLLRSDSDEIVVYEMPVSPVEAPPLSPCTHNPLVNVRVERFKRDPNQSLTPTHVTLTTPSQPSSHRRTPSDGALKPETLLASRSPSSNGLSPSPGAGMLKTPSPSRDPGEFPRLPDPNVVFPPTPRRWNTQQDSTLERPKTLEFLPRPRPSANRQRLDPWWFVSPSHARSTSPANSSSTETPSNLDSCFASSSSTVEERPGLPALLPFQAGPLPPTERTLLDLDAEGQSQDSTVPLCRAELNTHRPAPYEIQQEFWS

[5] = molecular target: T2, kinases (KINOMEscan panel) (Homo sapiens, UniProt Q8NE63); conditions: kinase HIPK4; NEW KINOMEscan
T2 sequence (Q8NE63 1-616): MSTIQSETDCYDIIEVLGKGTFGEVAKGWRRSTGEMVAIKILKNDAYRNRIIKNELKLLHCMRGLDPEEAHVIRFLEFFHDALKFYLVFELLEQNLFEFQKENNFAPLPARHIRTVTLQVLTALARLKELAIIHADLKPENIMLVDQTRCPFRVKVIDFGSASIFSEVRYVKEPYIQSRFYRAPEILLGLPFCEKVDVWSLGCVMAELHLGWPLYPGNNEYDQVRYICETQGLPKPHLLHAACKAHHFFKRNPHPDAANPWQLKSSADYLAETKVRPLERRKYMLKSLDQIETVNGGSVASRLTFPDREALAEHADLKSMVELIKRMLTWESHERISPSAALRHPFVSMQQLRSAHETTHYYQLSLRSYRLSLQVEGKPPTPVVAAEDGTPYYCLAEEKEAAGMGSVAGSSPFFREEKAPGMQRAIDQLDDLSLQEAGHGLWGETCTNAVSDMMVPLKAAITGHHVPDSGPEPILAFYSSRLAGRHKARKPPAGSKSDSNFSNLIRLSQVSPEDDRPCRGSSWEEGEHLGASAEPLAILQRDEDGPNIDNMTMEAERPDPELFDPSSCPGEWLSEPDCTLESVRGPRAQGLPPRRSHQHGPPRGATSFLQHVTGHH

[6] = molecular target: T3, kinases (KINOMEscan panel) (Homo sapiens, UniProt Q96L34); conditions: kinase MARK4; NEW KINOMEscan
T3 sequence (Q96L34 1-752): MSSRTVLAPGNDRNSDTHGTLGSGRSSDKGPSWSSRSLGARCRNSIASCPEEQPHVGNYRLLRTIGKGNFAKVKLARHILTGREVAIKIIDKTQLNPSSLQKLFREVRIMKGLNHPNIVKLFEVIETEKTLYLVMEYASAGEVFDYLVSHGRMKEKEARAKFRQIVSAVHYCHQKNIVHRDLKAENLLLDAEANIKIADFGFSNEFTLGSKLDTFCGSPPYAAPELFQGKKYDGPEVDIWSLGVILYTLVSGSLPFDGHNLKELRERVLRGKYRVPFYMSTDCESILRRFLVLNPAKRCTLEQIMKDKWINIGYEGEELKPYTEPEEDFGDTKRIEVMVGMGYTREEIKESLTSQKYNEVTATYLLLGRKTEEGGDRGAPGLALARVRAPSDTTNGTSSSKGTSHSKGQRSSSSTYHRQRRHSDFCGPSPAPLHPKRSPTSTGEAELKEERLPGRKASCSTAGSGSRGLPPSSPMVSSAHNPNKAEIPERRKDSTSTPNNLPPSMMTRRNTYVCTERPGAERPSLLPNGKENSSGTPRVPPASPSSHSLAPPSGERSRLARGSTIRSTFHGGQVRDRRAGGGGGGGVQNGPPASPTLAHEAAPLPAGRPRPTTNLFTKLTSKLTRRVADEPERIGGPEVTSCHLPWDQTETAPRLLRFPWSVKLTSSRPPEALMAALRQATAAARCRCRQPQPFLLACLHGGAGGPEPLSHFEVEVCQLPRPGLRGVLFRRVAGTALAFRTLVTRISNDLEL

[7] = molecular target: kinases (KINOMEscan panel) (Homo sapiens, UniProt Q96Q40)
Chain of kinases (KINOMEscan panel) (Homo sapiens, UniProt Q96Q40) (Q96Q40 whole entry): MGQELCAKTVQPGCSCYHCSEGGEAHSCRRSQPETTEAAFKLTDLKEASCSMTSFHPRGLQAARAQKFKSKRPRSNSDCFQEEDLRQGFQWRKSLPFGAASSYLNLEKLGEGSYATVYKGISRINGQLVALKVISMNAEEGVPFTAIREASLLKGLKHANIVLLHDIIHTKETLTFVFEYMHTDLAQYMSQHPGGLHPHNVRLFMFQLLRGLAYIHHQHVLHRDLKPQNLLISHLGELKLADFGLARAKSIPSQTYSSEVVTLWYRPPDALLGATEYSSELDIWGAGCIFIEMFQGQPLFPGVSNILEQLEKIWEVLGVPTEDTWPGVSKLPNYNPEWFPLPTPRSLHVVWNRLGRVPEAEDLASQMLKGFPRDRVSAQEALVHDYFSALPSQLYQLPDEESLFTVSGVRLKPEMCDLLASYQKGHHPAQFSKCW

Chain of kinases (KINOMEscan panel) (Homo sapiens, UniProt P10721, V559D/V654A) (P10721 26-976 V559D/V654A): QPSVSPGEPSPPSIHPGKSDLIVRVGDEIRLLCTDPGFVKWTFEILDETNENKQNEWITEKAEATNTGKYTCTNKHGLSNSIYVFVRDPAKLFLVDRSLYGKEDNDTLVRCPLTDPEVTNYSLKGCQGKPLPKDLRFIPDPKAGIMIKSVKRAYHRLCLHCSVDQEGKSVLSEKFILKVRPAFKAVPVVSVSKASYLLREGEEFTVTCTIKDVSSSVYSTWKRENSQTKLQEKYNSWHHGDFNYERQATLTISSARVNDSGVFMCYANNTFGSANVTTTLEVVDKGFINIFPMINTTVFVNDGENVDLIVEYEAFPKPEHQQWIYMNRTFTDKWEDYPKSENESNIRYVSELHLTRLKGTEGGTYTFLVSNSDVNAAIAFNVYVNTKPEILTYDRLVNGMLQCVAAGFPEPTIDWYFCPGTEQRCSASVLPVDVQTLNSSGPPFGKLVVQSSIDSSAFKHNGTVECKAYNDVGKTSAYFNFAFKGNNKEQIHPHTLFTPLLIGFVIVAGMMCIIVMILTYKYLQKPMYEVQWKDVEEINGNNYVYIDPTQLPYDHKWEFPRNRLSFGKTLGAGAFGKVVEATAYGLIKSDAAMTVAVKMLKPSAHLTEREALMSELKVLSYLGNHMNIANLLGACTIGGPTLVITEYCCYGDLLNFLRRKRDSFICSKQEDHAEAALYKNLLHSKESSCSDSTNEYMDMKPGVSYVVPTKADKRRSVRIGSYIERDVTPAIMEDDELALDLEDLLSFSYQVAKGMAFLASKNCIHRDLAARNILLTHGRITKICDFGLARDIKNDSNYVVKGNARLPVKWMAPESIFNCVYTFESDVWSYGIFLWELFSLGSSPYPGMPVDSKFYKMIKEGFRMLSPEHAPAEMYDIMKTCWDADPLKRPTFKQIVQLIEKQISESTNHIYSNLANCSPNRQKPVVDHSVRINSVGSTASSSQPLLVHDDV

| Compound | KINOMEscan KIT(V559D,V654A) [1] | KINOMEscan PIK3CA(E545A) [2] | KINOMEscan ZAP70 [3] | KINOMEscan MAP3K9 [4] | KINOMEscan HIPK4 [5] | KINOMEscan MARK4 [6] | KINOMEscan CDK15/PFTAIRE2 [7] |
| --- | --- | --- | --- | --- | --- | --- | --- |
| Cc1cccc(-c2nc(Nc3ccc4nn(C)cc4c3)c3ccccc3n2)n1 [NK167] | 15 | 31 | 14 | 11 | 7 | 34 | 0 |
| Cc1cccc(-c2nc(N(C)c3ccc4ncsc4c3)c3ccccc3n2)n1 [NK-161] | 4 | 14 | 20 | 27 | 25 | 16 | 0 |
